Measured values as given in US20230181503A1, “FEED ADDITIVE” (LUCTA, S.A., priority 2020, published 2023).

Tested on: IPEC-J2 cells (pig enterocytes)
Experiment: Trans-epithelial electrical resistance (TEER) of IPEC-J2 monolayer
Type: cell-based
Conditions: formulations 50 μg/mL, genistein 50 μM
Procedure: Formulation C with HT:MA:OA at weight ratio 11:50:23 (50 μg/mL) and formulation D with HT:MA:OA at weight ratio 12:50:15 (50 μg/mL) were also tested on a cell line of pig enterocytes (IPEC-J2), at different conditions. IPEC-J2 cells were seeded into a permeable transwells membrane insert (6.5 mm diameter, 0.4 μm pore size, 0.33 cm2, polyester, Costar) at 1×10^5 cells/cm^2 to form a confluent monolayer within 4 days. Medium was replaced 48 h post-seeded and products were added on the apical side. On day 3 post-seeded, cells were treated with LPS (50 ng/mL) on the apical side and 24 h post-LPS stimulation epithelial cell integrity was assessed through the measurement of trans-epithelial electrical resistance (TEER) using a Millicell ERS-2 Voltohmmeter (Millipore, Billerica, Mass.). For each condition, triplicates were carried out in three independent experiments. At the end of incubation apical and basal media were eliminated and RNAlater solution (1 mL/well) was added to the cells for RNA stabilization and storage. Total RNA was extracted using RNA Mini Kit columns from Ambion (Life technologies, Carlsbad, Calif.) and stored at −80° C. for subsequent retrotranscription and quantitative RT-PCR. The extraction of total RNA was carried out using PureLink™ RNA Mini Kit according to the manufacturer's protocol. […]

O=c1c(-c2ccc(O)cc2)coc2cc(O)cc(O)c12 [Genistein]
TEER relative to DMSO control (IPEC-J2, + LPS 50 ng/mL, 24 h post-LPS, LPS alone = 61.7): 107%
TEER relative to DMSO control (IPEC-J2, without LPS, Control (DMSO) = 100): 129%
